We go through 16 compounds from PubChem BioAssay (NCI).

Test systems include OVCAR-3 ovarian; K-562 leukemia; LOX IMVI melanoma; M19-MEL melanoma; 786-0 renal; UO-31 renal; CAKI-1 renal; HCT-116 colon; DMS 114 small cell lung; DLD-1 colon.
What all share (experiment): NCI anticancer screen, dose series, 48 h

“And” between values parts separate entries of the source, which are not always exact repeats. Identical values can stand only once.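 A five-concentration, 48-hour dose response in 96-well plates underlies each endpoint, interpolated linearly between surrounding concentrations. The concentration for 50% growth inhibition is given as GI50. TGI marks complete inhibition of growth.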

Turning to `COc1cccc(C(=O)N2CCc3ccccc32)c1OC`, the TGI with OVCAR-3 ovarian, with K-562 leukemia, in the assay with LOX IMVI melanoma, in the assay with M19-MEL melanoma, in the assay on 786-0 renal and in the assay with UO-31 renal was over 100 µM throughout. For the same compound, the TGI with CAKI-1 renal, in the assay with HCT-116 colon and in the assay on DMS 114 small cell lung was over 100 µM in each case.
Turning to `COc1c(C(=O)O)oc2c(OC)cccc12`, the TGI in the assay with OVCAR-3 ovarian, in the assay on K-562 leukemia, with LOX IMVI melanoma, in the assay with M19-MEL melanoma, in the assay on 786-0 renal and in the assay with UO-31 renal was over 100 µM each time. Further, the TGI with HCT-116 colon and in the assay with DMS 114 small cell lung was over 100 µM in each case.
On to `Cc1c(C(=O)c2ccccc2C(=O)O)c2ccccc2n1C`, for which the TGI in the assay with OVCAR-3 ovarian, in the assay on K-562 leukemia, with M19-MEL melanoma, with 786-0 renal, with DLD-1 colon and in the assay on UO-31 renal was over 100 µM throughout. Besides, the TGI in the assay with CAKI-1 renal, in the assay with HCT-116 colon and in the assay with DMS 114 small cell lung was over 100 µM each time.
`CN1c2ccccc2N(C)C2C1N(C)c1ccccc1N2C` (centres undefined): the TGI was 50.2 µM with OVCAR-3 ovarian; over 100 µM with K-562 leukemia; 32.7 µM in the assay on M19-MEL melanoma; over 100 µM in the assay with 786-0 renal; 62.6 µM with DLD-1 colon; 82.2 µM with UO-31 renal. Also, the values for the TGI in the assay with CAKI-1 renal, in the assay with HCT-116 colon and in the assay on DMS 114 small cell lung were over 100 µM, 42.4 µM and 26 µM, respectively.
As for `N=c1nnc(=O)c2c(s1)-n1ncc(C(=O)O)c1NN2`, the TGI in the assay on OVCAR-3 ovarian, with K-562 leukemia, in the assay with M19-MEL melanoma, in the assay with 786-0 renal, in the assay on DLD-1 colon and in the assay on UO-31 renal was over 100 µM each time. For the same compound, the TGI in the assay on CAKI-1 renal, in the assay on HCT-116 colon and in the assay on DMS 114 small cell lung was over 100 µM in each case.
With `CO/C1=C\C(C)=C\C(C)C(O)C(C)C/C(C)=C/C=C/C(OC)C(C(C)C(O)C(C)C2(O)CC(O)C(C)C(C(C)C)O2)OC1=O` (centres undefined), the TGI in the assay on K-562 leukemia was 13.7 µM; in the assay with LOX IMVI melanoma, 2.64e-05 µM; in the assay on M19-MEL melanoma, 3.12 µM; in the assay with 786-0 renal it was 10.4 µM; in the assay on DLD-1 colon, 21.7 µM; in the assay on UO-31 renal it was 0.0587 µM and 0.0234 µM. Further, the results for the TGI with CAKI-1 renal and in the assay on DMS 114 small cell lung were 9.89 µM and 10.3 µM, respectively. For the same compound, the GI50 in the assay on CAKI-1 renal was 0.021 µM.
Consider `CC(=O)O[C@H]1CC[C@@]2(C)C(=CC[C@H]3C4=CC=C(C(C)=O)[C@@]4(C)CCC32)C1` (some centres undefined), for which the TGI was over 100 µM in the assay with OVCAR-3 ovarian; 43.8 µM in the assay with LOX IMVI melanoma; over 100 µM in the assay on M19-MEL melanoma; over 100 µM in the assay on 786-0 renal; over 100 µM in the assay on DLD-1 colon; over 100 µM in the assay with UO-31 renal. In addition, the values for the TGI in the assay with CAKI-1 renal and in the assay on HCT-116 colon were over 100 µM and 36.9 µM, respectively.
Regarding `CN(C)C(N)=NC#N`, the TGI in the assay with OVCAR-3 ovarian, in the assay on K-562 leukemia, with M19-MEL melanoma, with 786-0 renal, in the assay on DLD-1 colon and with UO-31 renal was over 100 µM in each case. For the same compound, the TGI in the assay on CAKI-1 renal, in the assay on HCT-116 colon and in the assay with DMS 114 small cell lung was over 100 µM in each case.
In the case of `COc1ccc(C(N)=O)cc1N=NN(C)C`, the TGI in the assay with OVCAR-3 ovarian, in the assay with K-562 leukemia, in the assay with LOX IMVI melanoma, with M19-MEL melanoma, with 786-0 renal and in the assay with DLD-1 colon was over 100 µM throughout. Besides, the TGI with UO-31 renal, in the assay with CAKI-1 renal and with HCT-116 colon was over 100 µM in each case.
For `COC1OC(CO)C(O)C(O)C1Br` (centres undefined), the TGI in the assay with OVCAR-3 ovarian, in the assay with K-562 leukemia, in the assay with LOX IMVI melanoma, with M19-MEL melanoma, with 786-0 renal and in the assay with DLD-1 colon was over 100 µM in each case. In addition, the TGI in the assay with CAKI-1 renal and in the assay on HCT-116 colon was over 100 µM each time.
For `COc1cccc(NC(=O)CC(=O)N2N=C(N(CCC#N)c3ccccc3C)CC2c2ccccc2)c1` (centres undefined), the TGI with OVCAR-3 ovarian, in the assay on K-562 leukemia, with M19-MEL melanoma, with 786-0 renal, in the assay on DLD-1 colon and with UO-31 renal was over 100 µM in each case. Moreover, the TGI in the assay on CAKI-1 renal, in the assay with HCT-116 colon and in the assay with DMS 114 small cell lung was over 100 µM each time.
Turning to `Cc1nc2c(n1C(C)(C)C)C(=O)c1ccccc1C2=O`, the TGI is over 100 µM in the assay on OVCAR-3 ovarian; over 100 µM in the assay with K-562 leukemia; over 100 µM in the assay on LOX IMVI melanoma; 76.5 µM in the assay on M19-MEL melanoma; over 100 µM in the assay with 786-0 renal; over 100 µM with DLD-1 colon. The TGI in the assay with UO-31 renal and in the assay on HCT-116 colon was over 100 µM each time.
Consider `C(CCC[Te][Te]CCCCCCOC1CCCCO1)CCOC1CCCCO1` (centres undefined), for which the TGI in the assay on K-562 leukemia worked out at 29.7 µM; in the assay on LOX IMVI melanoma it was 35.1 µM; with 786-0 renal, 29.4 µM; in the assay with DLD-1 colon, 45.8 µM; in the assay on UO-31 renal, 77.3 µM; with CAKI-1 renal, 82.6 µM. In addition, the TGI was found to be 55.8 µM with HCT-116 colon and 25.5 µM in the assay with DMS 114 small cell lung.
With `COCC(=O)CP(=O)(OC)OC`, the TGI in the assay with OVCAR-3 ovarian, with K-562 leukemia, with LOX IMVI melanoma, in the assay with M19-MEL melanoma, in the assay with 786-0 renal and in the assay with UO-31 renal was over 100 µM each time. For the same compound, the TGI in the assay with CAKI-1 renal, in the assay on HCT-116 colon and in the assay on DMS 114 small cell lung was over 100 µM throughout.
As for `Cn1c(=O)nc2n(-c3cccc(F)c3)c3ccccc3nc-2c1=O`, the TGI in the assay with OVCAR-3 ovarian is 21.5 µM; with K-562 leukemia, 58.1 µM; with LOX IMVI melanoma, 61.8 µM; with M19-MEL melanoma it was 5.3 µM; with 786-0 renal, over 100 µM; in the assay on DLD-1 colon, over 100 µM. Also, the TGI in the assay with UO-31 renal is over 100 µM; in the assay with CAKI-1 renal, 96.9 µM; in the assay on HCT-116 colon it was 77.8 µM.
Take `COc1cc2noc(-c3ccccc3)c2cc1OC`: the TGI in the assay on K-562 leukemia, in the assay on LOX IMVI melanoma, in the assay with M19-MEL melanoma, with 786-0 renal, in the assay on DLD-1 colon and in the assay with UO-31 renal was over 100 µM in each case. In addition, the TGI with CAKI-1 renal was 92.2 µM; in the assay on HCT-116 colon it was over 100 µM; in the assay with DMS 114 small cell lung, over 100 µM.
